Laboratory results taken from US20260224588A1, “BENZODIAZEPINONE-DERIVED INHIBITORS OF EGFR AND HER2” (The Research Foundation for the State University of New York, priority 2023, published 2026).

Tests used:
[1] = molecular target: T1, ABL1(Y253F)-phosphorylated (Homo sapiens, UniProt P00519, Y253F); experiment: KINOMEscan; assay type: binding; details: 1 μM of compound 4; read-out: POC
T1 construct: purchased Eurofins DiscoverX Corporation

ALK(C1156Y) = ALK(C1156Y) (Homo sapiens, UniProt Q9UM73, C1156Y); experiment: KINOMEscan; assay type: binding; details: 1 μM of compound 4; read-out: POC
BMX = BMX (Homo sapiens, UniProt P51813); experiment: KINOMEscan; assay type: binding; details: 1 μM of compound 4; read-out: POC
CDK11 = CDK11 (Homo sapiens, UniProt Q9BWU1); experiment: KINOMEscan; assay type: binding; details: 1 μM of compound 4; read-out: POC
Sequence of CDK11 (Q9BWU1 whole entry): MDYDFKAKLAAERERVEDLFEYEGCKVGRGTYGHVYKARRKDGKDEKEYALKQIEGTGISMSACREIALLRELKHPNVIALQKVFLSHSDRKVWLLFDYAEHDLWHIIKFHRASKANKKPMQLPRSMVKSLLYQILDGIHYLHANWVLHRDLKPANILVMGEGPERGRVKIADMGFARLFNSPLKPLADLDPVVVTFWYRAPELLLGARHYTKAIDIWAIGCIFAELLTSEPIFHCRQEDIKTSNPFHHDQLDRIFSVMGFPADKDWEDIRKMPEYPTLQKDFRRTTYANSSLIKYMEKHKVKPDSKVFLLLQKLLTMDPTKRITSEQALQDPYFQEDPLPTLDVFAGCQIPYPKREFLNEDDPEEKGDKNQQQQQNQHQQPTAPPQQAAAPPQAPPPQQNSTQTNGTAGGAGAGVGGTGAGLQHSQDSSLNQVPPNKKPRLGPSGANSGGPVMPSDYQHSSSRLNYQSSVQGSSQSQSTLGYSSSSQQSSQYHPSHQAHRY

CLK1 = CLK1 (Homo sapiens, UniProt P49759); experiment: KINOMEscan; assay type: binding; details: 1 μM of compound 4; read-out: POC
CLK3 = CLK3 (Homo sapiens, UniProt P49761); experiment: KINOMEscan; assay type: binding; details: 1 μM of compound 4; read-out: POC
Sequence of CLK3 (P49761 whole entry): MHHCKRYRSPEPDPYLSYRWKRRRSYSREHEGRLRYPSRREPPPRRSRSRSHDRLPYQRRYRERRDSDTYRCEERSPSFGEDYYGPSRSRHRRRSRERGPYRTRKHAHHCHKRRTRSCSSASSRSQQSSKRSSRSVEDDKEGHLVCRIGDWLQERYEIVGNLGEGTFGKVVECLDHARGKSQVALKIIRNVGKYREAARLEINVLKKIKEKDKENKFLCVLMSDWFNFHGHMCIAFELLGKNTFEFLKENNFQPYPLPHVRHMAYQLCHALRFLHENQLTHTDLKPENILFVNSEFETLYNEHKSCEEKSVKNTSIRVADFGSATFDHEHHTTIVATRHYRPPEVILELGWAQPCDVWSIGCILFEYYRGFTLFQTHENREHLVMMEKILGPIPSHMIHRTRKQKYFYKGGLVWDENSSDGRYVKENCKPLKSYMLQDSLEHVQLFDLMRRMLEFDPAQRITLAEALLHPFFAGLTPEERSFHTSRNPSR

CSNK1G2 = CSNK1G2 (Homo sapiens, UniProt P78368); experiment: KINOMEscan; assay type: binding; details: 1 μM of compound 4; read-out: POC
EGFR = EGFR (Homo sapiens, UniProt P00533); experiment: KINOMEscan; assay type: binding; details: 1 μM of compound 4; read-out: POC
EGFR(L858R + T790M) = molecular target: T2, EGFR(L858R + T790M) (Homo sapiens, UniProt P00533, L858R/T790M); experiment: KINOMEscan; assay type: binding; details: 1 μM of compound 4; read-out: POC
T2 construct: purchased Eurofins DiscoverX (KINOMEscan service)

EGFR(T790M) = molecular target: T3, EGFR(T790M) (Homo sapiens, UniProt P00533, T790M); experiment: KINOMEscan; assay type: binding; details: 1 μM of compound 4; read-out: POC
T3 construct: purchased Eurofins DiscoverX (KINOMEscan service)

ERK4 = molecular target: T4, ERK4 (Homo sapiens, UniProt P31152); experiment: KINOMEscan; assay type: binding; details: 1 μM of compound 4; read-out: POC
T4 construct: purchased Eurofins DiscoverX Corporation

FGFR2 = molecular target: T5, FGFR2 (Homo sapiens, UniProt P21802); experiment: KINOMEscan; assay type: binding; details: 1 μM of compound 4; read-out: POC
T5 construct: purchased Eurofins DiscoverX Corporation

MAPKAPK5 = MAPKAPK5 (Homo sapiens, UniProt Q8IW41); experiment: KINOMEscan; assay type: binding; details: 1 μM of compound 4; read-out: POC
MST1 = MST1 (Homo sapiens, UniProt Q13043); experiment: KINOMEscan; assay type: binding; details: 1 μM of compound 4; read-out: POC
MYO3B = MYO3B (Homo sapiens, UniProt Q8WXR4); experiment: KINOMEscan; assay type: binding; details: 1 μM of compound 4; read-out: POC
Sequence of MYO3B (Q8WXR4 whole entry): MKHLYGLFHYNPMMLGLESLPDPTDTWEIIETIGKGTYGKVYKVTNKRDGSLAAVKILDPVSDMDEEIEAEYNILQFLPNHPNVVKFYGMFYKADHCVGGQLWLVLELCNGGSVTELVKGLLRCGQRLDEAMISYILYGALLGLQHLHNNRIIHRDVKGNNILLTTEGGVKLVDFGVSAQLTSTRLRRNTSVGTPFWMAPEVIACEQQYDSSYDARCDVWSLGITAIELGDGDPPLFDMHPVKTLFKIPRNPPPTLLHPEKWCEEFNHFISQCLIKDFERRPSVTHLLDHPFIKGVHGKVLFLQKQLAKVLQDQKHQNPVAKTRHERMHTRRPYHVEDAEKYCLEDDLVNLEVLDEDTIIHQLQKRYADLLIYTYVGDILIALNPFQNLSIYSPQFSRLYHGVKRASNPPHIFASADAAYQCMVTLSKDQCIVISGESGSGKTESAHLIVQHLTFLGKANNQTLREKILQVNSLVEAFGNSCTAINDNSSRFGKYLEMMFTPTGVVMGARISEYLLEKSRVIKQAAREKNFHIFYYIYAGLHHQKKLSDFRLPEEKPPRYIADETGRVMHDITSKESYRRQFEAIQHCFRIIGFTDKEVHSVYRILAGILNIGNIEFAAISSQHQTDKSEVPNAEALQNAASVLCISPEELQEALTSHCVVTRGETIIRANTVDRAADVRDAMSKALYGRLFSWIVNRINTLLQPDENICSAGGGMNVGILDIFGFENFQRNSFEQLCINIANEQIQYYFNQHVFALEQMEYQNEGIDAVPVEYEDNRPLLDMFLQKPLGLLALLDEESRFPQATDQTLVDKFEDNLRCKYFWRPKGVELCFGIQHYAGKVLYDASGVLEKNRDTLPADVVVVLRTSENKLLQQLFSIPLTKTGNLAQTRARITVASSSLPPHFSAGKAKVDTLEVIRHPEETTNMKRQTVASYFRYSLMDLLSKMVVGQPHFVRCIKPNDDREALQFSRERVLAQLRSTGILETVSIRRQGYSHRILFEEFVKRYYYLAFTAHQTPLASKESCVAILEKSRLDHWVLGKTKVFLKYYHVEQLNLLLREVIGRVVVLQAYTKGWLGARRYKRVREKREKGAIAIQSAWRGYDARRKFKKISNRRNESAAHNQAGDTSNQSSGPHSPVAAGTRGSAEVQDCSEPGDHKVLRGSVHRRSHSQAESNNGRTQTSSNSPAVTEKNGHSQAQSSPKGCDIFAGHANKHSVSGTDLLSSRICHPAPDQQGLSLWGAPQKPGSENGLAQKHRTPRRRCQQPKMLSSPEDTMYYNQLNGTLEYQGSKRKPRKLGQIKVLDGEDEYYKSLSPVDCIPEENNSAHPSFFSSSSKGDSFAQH

PCTK1 = molecular target: T6, PCTK1 (Homo sapiens, UniProt Q00536); experiment: KINOMEscan; assay type: binding; details: 1 μM of compound 4; read-out: POC
T6 construct: purchased Eurofins DiscoverX Corporation (KINOMEscan)

PIK3CA(E542K) = PIK3CA(E542K) (Homo sapiens, UniProt P42336, E542K); experiment: KINOMEscan; assay type: binding; details: 1 μM of compound 4; read-out: POC
Sequence of PIK3CA(E542K) (P42336 whole entry E542K): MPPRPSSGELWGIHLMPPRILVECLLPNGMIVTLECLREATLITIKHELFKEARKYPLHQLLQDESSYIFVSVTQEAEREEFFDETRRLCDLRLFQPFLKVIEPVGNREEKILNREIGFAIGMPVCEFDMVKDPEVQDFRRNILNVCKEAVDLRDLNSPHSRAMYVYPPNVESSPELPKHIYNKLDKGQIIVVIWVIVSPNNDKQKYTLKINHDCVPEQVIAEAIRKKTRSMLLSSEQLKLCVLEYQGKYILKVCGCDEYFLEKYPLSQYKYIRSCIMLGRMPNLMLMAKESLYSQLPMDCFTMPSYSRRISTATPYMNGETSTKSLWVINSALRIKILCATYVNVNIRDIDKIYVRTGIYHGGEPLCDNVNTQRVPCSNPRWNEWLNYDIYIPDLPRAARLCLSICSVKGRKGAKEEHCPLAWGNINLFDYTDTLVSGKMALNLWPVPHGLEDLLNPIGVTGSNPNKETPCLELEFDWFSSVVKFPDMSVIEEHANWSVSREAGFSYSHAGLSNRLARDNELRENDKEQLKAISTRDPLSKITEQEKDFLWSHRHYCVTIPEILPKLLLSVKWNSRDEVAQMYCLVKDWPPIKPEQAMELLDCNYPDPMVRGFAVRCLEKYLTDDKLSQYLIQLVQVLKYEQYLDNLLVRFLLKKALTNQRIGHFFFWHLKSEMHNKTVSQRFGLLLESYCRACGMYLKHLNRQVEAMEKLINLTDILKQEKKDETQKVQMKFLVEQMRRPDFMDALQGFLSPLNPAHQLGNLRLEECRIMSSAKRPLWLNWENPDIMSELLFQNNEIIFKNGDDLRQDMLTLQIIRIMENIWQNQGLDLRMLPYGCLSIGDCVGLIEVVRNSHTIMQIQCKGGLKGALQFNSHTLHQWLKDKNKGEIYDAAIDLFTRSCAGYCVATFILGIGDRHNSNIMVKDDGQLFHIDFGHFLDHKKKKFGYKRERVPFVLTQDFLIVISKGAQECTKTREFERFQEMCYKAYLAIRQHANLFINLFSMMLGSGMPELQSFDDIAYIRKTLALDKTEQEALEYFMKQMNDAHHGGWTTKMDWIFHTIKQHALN

PIK3CA(H1047L) = PIK3CA(H1047L) (Homo sapiens, UniProt P42336, H1047L); experiment: KINOMEscan; assay type: binding; details: 1 μM of compound 4; read-out: POC
Sequence of PIK3CA(H1047L) (P42336 whole entry H1047L): as the sequence (P42336 whole entry E542K) above, with K542E, H1047L counted along it

PIK3CA(M1043I) = PIK3CA(M1043I) (Homo sapiens, UniProt P42336, M1043I); experiment: KINOMEscan; assay type: binding; details: 1 μM of compound 4; read-out: POC
Sequence of PIK3CA(M1043I) (P42336 whole entry M1043I): as the sequence (P42336 whole entry E542K) above, with K542E, M1043I counted along it

PIK3CA(Q546K) = PIK3CA(Q546K) (Homo sapiens, UniProt P42336, Q546K); experiment: KINOMEscan; assay type: binding; details: 1 μM of compound 4; read-out: POC
Sequence of PIK3CA(Q546K) (P42336 whole entry Q546K): as the sequence (P42336 whole entry E542K) above, with K542E, Q546K counted along it

PLK3 = PLK3 (Homo sapiens, UniProt Q9H4B4); experiment: KINOMEscan; assay type: binding; details: 1 μM of compound 4; read-out: POC
PYK2 = molecular target: T7, PYK2 (Homo sapiens, UniProt Q14289); experiment: KINOMEscan; assay type: binding; details: 1 μM of compound 4; read-out: POC
T7 construct: purchased Eurofins DiscoverX Corporation (KINOMEscan screening service)
T7 sequence (Q14289 whole entry): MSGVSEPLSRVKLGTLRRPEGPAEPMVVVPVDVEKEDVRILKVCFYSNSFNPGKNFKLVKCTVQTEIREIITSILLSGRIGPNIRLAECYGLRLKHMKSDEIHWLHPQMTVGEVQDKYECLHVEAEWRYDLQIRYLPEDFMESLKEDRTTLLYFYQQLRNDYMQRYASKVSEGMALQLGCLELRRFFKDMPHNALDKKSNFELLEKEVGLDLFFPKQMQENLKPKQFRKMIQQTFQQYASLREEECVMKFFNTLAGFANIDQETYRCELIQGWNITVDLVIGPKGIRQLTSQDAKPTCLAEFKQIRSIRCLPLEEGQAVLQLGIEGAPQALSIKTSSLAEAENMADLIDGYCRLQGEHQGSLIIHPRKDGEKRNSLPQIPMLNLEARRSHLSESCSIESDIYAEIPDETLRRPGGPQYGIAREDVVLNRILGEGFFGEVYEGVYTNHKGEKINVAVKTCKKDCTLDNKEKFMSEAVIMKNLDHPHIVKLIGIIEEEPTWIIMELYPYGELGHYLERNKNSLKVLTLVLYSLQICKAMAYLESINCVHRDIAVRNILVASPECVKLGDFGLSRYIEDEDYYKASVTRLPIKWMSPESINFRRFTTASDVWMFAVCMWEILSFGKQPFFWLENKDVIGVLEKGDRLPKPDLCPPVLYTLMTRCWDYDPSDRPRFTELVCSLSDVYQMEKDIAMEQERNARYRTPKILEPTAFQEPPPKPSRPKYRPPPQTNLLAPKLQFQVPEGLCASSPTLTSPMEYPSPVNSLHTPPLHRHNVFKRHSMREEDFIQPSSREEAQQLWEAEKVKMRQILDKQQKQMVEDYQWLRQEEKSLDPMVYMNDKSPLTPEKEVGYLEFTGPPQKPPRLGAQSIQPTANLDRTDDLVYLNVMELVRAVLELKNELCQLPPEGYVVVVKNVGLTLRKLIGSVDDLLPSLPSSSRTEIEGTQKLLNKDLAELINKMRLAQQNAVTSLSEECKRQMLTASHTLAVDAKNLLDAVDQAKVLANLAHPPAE

RIPK5 = molecular target: T8, RIPK5 (Homo sapiens, UniProt Q6XUX3); experiment: KINOMEscan; assay type: binding; details: 1 μM of compound 4; read-out: POC
T8 construct: purchased Eurofins DiscoverX Corporation (KINOMEscan screening service)

[2] = molecular target: T9, RSK3(Kin.Dom.2-C-terminal) (Homo sapiens, UniProt Q15349); experiment: KINOMEscan; assay type: binding; details: 1 μM of compound 4; read-out: POC
T9 construct: RSK3(Kin.Dom.2-C-terminal); purchased Eurofins DiscoverX (KINOMEscan service)

STK39 = molecular target: T10, STK39 (Homo sapiens, UniProt Q9UEW8); experiment: KINOMEscan; assay type: binding; details: 1 μM of compound 4; read-out: POC
T10 construct: purchased Eurofins DiscoverX (KINOMEscan service)

TSSK1B = molecular target: T11, TSSK1B (Homo sapiens, UniProt Q9BXA7); experiment: KINOMEscan; assay type: binding; details: 1 μM of compound 4; read-out: POC
T11 construct: purchased Eurofins DiscoverX Corporation

ULK3 = molecular target: T12, ULK3 (Homo sapiens, UniProt Q6PHR2); experiment: KINOMEscan; assay type: binding; details: 1 μM of compound 4; read-out: POC
T12 construct: purchased Eurofins DiscoverX

ZAP70 = molecular target: T13, ZAP70 (Homo sapiens, UniProt P43403); experiment: KINOMEscan; assay type: binding; details: 1 μM of compound 4; read-out: POC
T13 construct: purchased Eurofins DiscoverX

EGFR(L858R) = EGFR(L858R) (Homo sapiens, UniProt P00533, L858R); experiment: Time-dependent kinase inhibition assay (Sox-based substrate); assay type: biochemical; design: EGFR [L858R], cytoplasmic domain (669-1210), GST-tagged, Carna; purchased Carna 08-510
Sequence of EGFR(L858R) (P00533 669-1210 L858R): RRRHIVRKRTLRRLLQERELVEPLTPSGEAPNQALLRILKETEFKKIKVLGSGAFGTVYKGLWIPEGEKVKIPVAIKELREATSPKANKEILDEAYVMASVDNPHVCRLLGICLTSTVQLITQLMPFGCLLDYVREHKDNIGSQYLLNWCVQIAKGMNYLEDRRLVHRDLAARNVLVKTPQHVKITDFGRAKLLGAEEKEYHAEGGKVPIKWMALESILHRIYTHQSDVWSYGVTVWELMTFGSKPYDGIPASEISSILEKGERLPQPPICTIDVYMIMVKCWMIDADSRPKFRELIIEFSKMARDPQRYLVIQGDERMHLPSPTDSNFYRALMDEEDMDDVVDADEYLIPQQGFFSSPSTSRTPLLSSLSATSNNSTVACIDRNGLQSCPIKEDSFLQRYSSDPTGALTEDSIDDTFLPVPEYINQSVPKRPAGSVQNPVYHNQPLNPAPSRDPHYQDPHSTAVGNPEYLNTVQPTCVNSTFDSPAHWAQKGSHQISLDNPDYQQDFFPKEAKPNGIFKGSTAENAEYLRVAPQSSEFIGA
Experimental: Time-dependent Kinase Inhibition Assays. Biochemical assays were performed with commercially available EGFR WT, cytoplasmic domain (669-1210), GST-tagged, Carna (Cat #/Lot #: 08-115/21CBS-0127H), EGFR [T790M/L858R] and EGFR [L858R], cytoplasmic domain (669-1210), GST-tagged, Carna (Cat #/Lot #: 08-510/12CBS-0765M). […] BSA was not included in this experiment to prevent interference with irreversible inhibitor characterization via off-target binding. All reactions were run for 240 minutes at 30° C. Time-dependent fluorescence from the Sox-based substrate was monitored in PerkinElmer ProxiPlate-384 Plus, white shallow well microplates (Cat. #6008280) Biotek Synergy Neo 2 microplate reader with excitation (360 nm) and emission (485 nm) wavelengths. 2 was dosed between 0 and 10 μM in 24-point curves with 1.5-fold dilutions. Fluorescence, determined with identical reactions but lacking purified enzyme or crude cell lysate was subtracted from the total fluorescence signal for each time point, with both determined in duplicate, to obtain corrected relative fluorescence units (RFU). Corrected RFU values then were plotted vs. time and the reaction velocity for the first ~40 min (initial reaction rates) were determined from the slope using GraphPad Prism (La Jolla, CA) with units of RFU/min.

Structure (SMILES): C=CC(=O)Nc1ccc(OC)c(Nc2cc(-c3[nH]c(CC)nc3-c3cccc(NC(=O)c4cccc5c4NC(=O)c4ccccc4N5)c3)ccn2)c1 [Compound 4, N-(3-(5-(2-((5-Acrylamido-2-methoxyphenyl)amino)pyridin-4-yl)-2-ethyl-1H-imidazol-4-yl)phenyl)-11-oxo-10,11-dihydro-5H-dibenzo[b,e][1,4]diazepine-9-carboxamide]
- remaining binding at 1 µM [1]: 72%
- remaining binding at 1 µM (ALK(C1156Y)): 87%
- remaining binding at 1 µM (BMX): 66%
- remaining binding at 1 µM (CDK11): 100%
- remaining binding at 1 µM (CLK1): 100%
- remaining binding at 1 µM (CLK3): 74%
- remaining binding at 1 µM (CSNK1G2): 91%
- remaining binding at 1 µM (EGFR): 17%
- remaining binding at 1 µM (EGFR(L858R + T790M)): 8.3%
- remaining binding at 1 µM (EGFR(T790M)): 12%
- remaining binding at 1 µM (ERK4): 100%
- remaining binding at 1 µM (FGFR2): 100%
- remaining binding at 1 µM (MAPKAPK5): 100%
- remaining binding at 1 µM (MST1): 6%
- remaining binding at 1 µM (MYO3B): 31%
- remaining binding at 1 µM (PCTK1): 100%
- remaining binding at 1 µM (PIK3CA(E542K)): 100%
- remaining binding at 1 µM (PIK3CA(H1047L)): 100%
- remaining binding at 1 µM (PIK3CA(M1043I)): 55%
- remaining binding at 1 µM (PIK3CA(Q546K)): 100%
- remaining binding at 1 µM (PLK3): 87%
- remaining binding at 1 µM (PYK2): 100%
- remaining binding at 1 µM (RIPK5): 79%
- remaining binding at 1 µM [2]: 80%
- remaining binding at 1 µM (STK39): 85%
- remaining binding at 1 µM (TSSK1B): 95%
- remaining binding at 1 µM (ULK3): 100%
- remaining binding at 1 µM (ZAP70): 97%
- kinact (EGFR(L858R)): 0.00867 s⁻¹
- Ki (EGFR(L858R); read-out: KI, LR): 610 ± 30 nM
- kinact/KI (EGFR(L858R); read-out: kinact/KI, LR): 14100 ± 300 M⁻¹ s⁻¹
